In PubChem BioAssay (NCI):
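48-hour exposure; five concentrations; linearly interpolated endpoints. Here, GI50 denotes the concentration required for 50% inhibition of growth. TGI is the concentration that stops growth completely.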

Key:
Experiment in all cases: growth of human tumour cells (NCI), 48 h
[1] = system: KM12 colon
[2] = system: PC-3 prostate
[3] = system: A549 NSCLC
[4] = system: NCI/ADR-RES ovarian
[5] = system: HCT-116 colon
[6] = system: U251 CNS
[7] = system: SF-268 CNS
[8] = system: COLO 205 colon
[9] = system: MDA-MB-435
[10] = system: SNB-19 CNS
[11] = system: SF-295 CNS
[12] = system: SK-OV-3 ovarian
[13] = system: 786-0 renal
[14] = system: OVCAR-5 ovarian
[15] = system: SK-MEL-5 melanoma
[16] = system: UO-31 renal
[17] = system: NCI-H522 lung
[18] = system: HT29 colon
[19] = system: TK-10 renal
[20] = system: OVCAR-4 ovarian
[21] = system: A498 renal
[22] = system: SR leukemia
[23] = system: HS 578T breast
[24] = system: RPMI-8226 leukemia
[25] = system: UACC-257 melanoma
[26] = system: MDA-MB-231 breast
[27] = system: CAKI-1 renal
[28] = system: MOLT-4 leukemia
[29] = system: EKVX NSCLC
[30] = system: IGROV1 ovarian
[31] = system: LOX IMVI melanoma
[32] = system: HCT-15 colon
[33] = system: DU-145 prostate
[34] = system: SK-MEL-28 melanoma
[35] = system: ACHN renal
[36] = system: RXF 393 renal
[37] = system: T-47D breast
[38] = system: K-562 leukemia
[39] = system: SN12C renal
[40] = system: SNB-75 CNS
[41] = system: HOP-62 NSCLC
[42] = system: NCI-H460 lung
[43] = system: M14 melanoma
[44] = system: SW-620 colon
[45] = system: HL-60(TB) leukemia
[46] = system: OVCAR-8 ovarian
[47] = system: HCC-2998 colon
[48] = system: UACC-62 melanoma
[49] = system: OVCAR-3 ovarian
[50] = system: MCF7 breast
[51] = system: MALME-3M melanoma
[52] = system: HOP-92 NSCLC
[53] = system: SF-539 CNS
[54] = system: SK-MEL-2 melanoma
[55] = system: BT-549 breast
[56] = system: CCRF-CEM leukemia

**Q.** What does the source list for `CN1CCN(c2nc(-c3csc(-c4ccccc4)n3)cc3ccccc23)CC1`?
**A.** GI50 [1]: 1.95 µM; TGI [1]: 3.99 µM; GI50 [2]: 2.25 µM; TGI [2]: 6.25 µM; GI50 [3]: 10.3 µM; TGI [3]: 22.7 µM; GI50 [4]: 1.93 µM; TGI [4]: 4.25 µM; GI50 [5]: 1.61 µM; TGI [5]: 2.98 µM; GI50 [6]: 2.34 µM; TGI [6]: 6.22 µM; GI50 [7]: 4.67 µM; TGI [7]: 19.4 µM; GI50 [8]: 1.68 µM; TGI [8]: 3.19 µM; GI50 [9]: 1.78 µM; TGI [9]: 3.47 µM; GI50 [10]: 5.52 µM; TGI [10]: 21.3 µM; GI50 [11]: 4.97 µM; TGI [11]: 17.6 µM; GI50 [12]: 12.3 µM; TGI [12]: 28.2 µM; GI50 [13]: 1.68 µM; TGI [13]: 3.34 µM; GI50 [14]: 3.23 µM; TGI [14]: 12.8 µM; GI50 [15]: 3.26 µM; TGI [15]: 12.1 µM; GI50 [16]: 2.19 µM; TGI [16]: 8.18 µM; GI50 [17]: 1.93 µM; TGI [17]: 4.44 µM; GI50 [18]: 1.75 µM; TGI [18]: 3.28 µM; GI50 [19]: 14.6 µM; TGI [19]: 28.9 µM; GI50 [20]: 4.1 µM; TGI [20]: 19.8 µM; GI50 [21]: 14.8 µM; TGI [21]: 28.9 µM; GI50 [22]: 1.58 µM; TGI [22]: 3.97 µM; GI50 [23]: 4.57 µM; TGI [23]: 27.1 µM; GI50 [24]: 2.09 µM; TGI [24]: 5.37 µM; GI50 [25]: 1.89 µM; TGI [25]: 4.19 µM; GI50 [26]: 1.94 µM; TGI [26]: 4.38 µM; GI50 [27]: 1.61 µM; TGI [27]: 3.52 µM; GI50 [28]: 2.02 µM; TGI [28]: 4.04 µM; GI50 [29]: 3.36 µM; TGI [29]: 13 µM; GI50 [30]: 1.88 µM; TGI [30]: 4.55 µM; GI50 [31]: 1.66 µM; TGI [31]: 3.09 µM; GI50 [32]: 1.85 µM; TGI [32]: 3.66 µM; GI50 [33]: 2.7 µM; TGI [33]: 7.98 µM; GI50 [34]: 1.74 µM; TGI [34]: 3.28 µM; GI50 [35]: 2.1 µM; TGI [35]: 4.77 µM; GI50 [36]: 1.96 µM; TGI [36]: 5.22 µM; GI50 [37]: 2.07 µM; TGI [37]: 5.53 µM; GI50 [38]: 1.84 µM; TGI [38]: 3.66 µM; GI50 [39]: 3.45 µM; TGI [39]: 12.1 µM; GI50 [40]: 5.97 µM; TGI [40]: 20.8 µM; GI50 [41]: 2.58 µM; TGI [41]: 10.6 µM; GI50 [42]: 1.73 µM; TGI [42]: 3.27 µM; GI50 [43]: 1.8 µM; TGI [43]: 3.55 µM; GI50 [44]: 1.63 µM; TGI [44]: 3.12 µM; GI50 [45]: 1.84 µM; TGI [45]: 3.91 µM; GI50 [46]: 1.79 µM; TGI [46]: 3.79 µM; GI50 [47]: 1.66 µM; TGI [47]: 3.08 µM; GI50 [48]: 1.93 µM; TGI [48]: 3.88 µM; GI50 [49]: 3.04 µM; TGI [49]: 11.8 µM; GI50 [50]: 1.65 µM; TGI [50]: 3.46 µM; GI50 [51]: 2 µM; TGI [51]: 4.23 µM; GI50 [52]: 1.88 µM; TGI [52]: 7.63 µM; GI50 [53]: 1.79 µM; TGI [53]: 3.45 µM; GI50 [54]: 14.1 µM; TGI [54]: 29.2 µM; GI50 [55]: 13 µM; TGI [55]: 36.4 µM; GI50 [56]: 1.96 µM; TGI [56]: 4.34 µM
